What was measured:
[1] = female, Japanese quail (Coturnix japonica), in vivo, 16 weeks
Description: Tissues were homogenized and extracted three times with tetrahydrofuran containing 0.1% butylated hydroxytoluene by sonication at 5° C. to 10° C. for 30 minutes each time. The combined organic extracts were evaporated to dryness under vacuum at room temperature. The dried residue was redissolved in one ml of HPLC mobile phase and centrifuged at approximately 2000 g for 10 minutes to remove the minor amounts of insoluble solid particles prior to analysis. The majority of carotenoids in bird retinas are esterified (32), so after the initial extraction, the dried carotenoid residue was redissolved in hexane and subjected to saponification in 1.8% (w/v) methanolic potassium hydroxide (KOH) for two hours at room temperature. After saponification, the samples were washed with water until the samples achieved neutral pH. The vials were centrifuged at approximately 2000 g to remove the minor amounts of insoluble solid particles. The solution was evaporated to dryness on a rotary evaporator under reduced pressure at room temperature and reconstituted in the appropriate HPLC solvents.
HPLC analysis was performed on a Thermo Separations (San Jose, Calif.) HPLC system with binary gradient pumps, a refrigerated autosampler, a UV6000 photodiode-array detector (PDA), and an MSQ single quadrupole mass spectrometer. […]

A2E formation in the RPE = assay: Xanthophyll supplementation in Japanese quail: A2E in RPE/choroid by HPLC-MS; type: in vivo, Japanese quail (Coturnix japonica); conditions: for Rise of A2E levels from baseline levels: 16-week supplementation, P=0.1, unsupplemented control rose more than six-fold; for A2E oxidation products in mass spectra versus control group: A2E extracted from RPE, FIG. 5; for A2E levels in the RPE, control group relative to supplemented groups: FIG. 4, 16 weeks, N=4, P<0.001; for Inhibition of A2E formation relative to birds fed a control diet low in carotenoids: high dose supplementation
Description: A2E and its isomers were extracted and isolated from RPE/choroid using a previously described method (8). RPE samples were homogenized in 1:1 CHCl3/MeOH (2 ml) and 0.01 M phosphate-buffered saline (PBS) (1 ml). The homogenizer was washed with 1:1 CHCl3/MeOH (2 ml), 0.01 M PBS (1 ml), and then CHCl3 (2 ml) and CH2Cl2 (2 ml) were added to remove any remaining material. All solutions were combined, and the organic layer was extracted from the aqueous layer. The combined organic extracts were evaporated to dryness under vacuum at room temperature. The residue was dissolved in MeOH for HPLC. The vials were centrifuged at approximately 2000 g to remove the minor amounts of insoluble solid particles prior to analysis.
HPLC analysis was performed on a Thermo Separations (San Jose, Calif.) HPLC system with binary gradient pumps, a refrigerated autosampler, a UV6000 photodiode-array detector (PDA), and an MSQ single quadrupole mass spectrometer. Peak identities were confirmed by PDA and mass spectra and by co-elution with authentic standards as necessary. Calibration was by external standardization curves with authentic standards. […] Typical reproducibility with external standardization in our laboratory is +5%.
A2E HPLC analysis: The dried A2E samples were redissolved in 100 μl of MeOH. A gradient of 84-100% acetonitrile (A) with 0.05% trifluoroacetic acid in H2O (B) over 35 minutes was used to separate A2E at a flow rate of 1.0 ml min^−1 on a reverse-phase C18 column (4.6×250 mm, Phenomenex, Atlanta, Ga.). The column was maintained at room temperature, and the HPLC PDA detector was operated at 440 nm.
MS analysis was performed using a Thermo Separations (San Jose, Calif.) MSQ single quadrupole mass spectrometer, equipped with an electron spray ionization (ESI) source and an atmospheric pressure chemical ionization (APCI) source. A2E and carotenoids were ionized in positive ion ESI and APCI modes, respectively. To avoid overloading of eluted solvent molecules in the mass spectrometer and to optimize ionization conditions, 50% of the eluate was directed to waste with the help of a diverter valve after the PDA detector. The delay time from PDA to MS was 0.13 minutes. […] Selected ion monitoring (SIM) was performed using dwell time of 200 ms for each channel. In SIM mode, the m/z channels 592±3, 608±1.5, 624±1.5, and 640±1.5 were used for A2E and its oxidative products. Typical detection conditions for A2E were: RF lens bias voltage 0.1V, cone voltage 80V and heater temperature 550° C. The ion source and tuning lens parameters were optimized automatically by infusing A2E samples via the injector. For carotenoids, the m/z channels 551±0.7 and 569±0.7 were used for lutein, and 569±0.8 for zeaxanthin. Typical detection conditions were: corona discharge current 5 μA, cone voltage 80V, and probe temperature 500° C.
Adult Japanese quail (Coturnix japonica) were procured from B&D farms (Harrah, Okla.), and all experiments were reviewed and approved by the University of Utah's Institutional Animal Care and Use Committee. The birds were kept under ambient room light on a 12-hour light-dark cycle, and they were divided into three groups of four birds: lutein supplemented, zeaxanthin supplemented, and unsupplemented. All birds were fed daily with a standard turkey diet (˜20 g/day) (Purina Mills, St. Louis, Mo.) that was low in carotenoids (1.10 ng/g). The supplemented birds were gavaged daily with 0.5 ml of a microbial extract rich in lutein or zeaxanthin for 16 weeks (0.2 mg of carotenoid per bird per day). Lutein was prepared from the freshwater alga Chlorella protothecoides CS 41 (Microalgae Supply Service, CSIRO, Hobart Australia) under conditions described earlier (36). Zeaxanthin was obtained from the non-pathogenic bacteria Flavobacterium multivorum ATCC 55238 grown on liquid growth medium as detailed earlier (37). […]

[2] = extensive use in humans as dietary supplements; cited from earlier work

| Increase of total lutein and zeaxanthin levels (retina) relative to baseline [1] [fold] | Rise of total retinal carotenoid levels relative to baseline [1] [fold] | Compound | Rise of A2E levels from baseline levels (A2E formation in the RPE) | A2E oxidation products in mass spectra versus control group (A2E formation in the RPE) | A2E levels in the RPE, control group relative to supplemented groups (A2E formation in the RPE) | Inhibition of A2E formation relative to birds fed a control diet low in carotenoids (A2E formation in the RPE) | Toxicity in humans as dietary supplements [2] |
| --- | --- | --- | --- | --- | --- | --- | --- |
| 2.8 | 1.6 | CC1=C[C@H](O)CC(C)(C)[C@H]1/C=C/C(C)=C/C=C/C(C)=C/C=C/C=C(C)/C=C/C=C(C)/C=C/C1=C(C)C[C@@H](O)CC1(C)C [Lutein, (3R, 3′R, 6′R)-lutein] | barely any rise from baseline levels | control group had higher levels of oxidation products in comparison | significantly higher for the control group | profound inhibition of A2E formation | no toxicity has ever been reported |
| – | – | CC1=C(/C=C/C(C)=C/C=C/C(C)=C/C=C/C=C(C)/C=C/C=C(C)/C=C/C2=C(C)C[C@@H](O)CC2(C)C)C(C)(C)C[C@H](O)C1 [Zeaxanthin, (3R, 3′R)-zeaxanthin] | barely any rise from baseline levels | control group had higher levels of oxidation products in comparison | significantly higher for the control group | profound inhibition of A2E formation | no toxicity has ever been reported |

Source: patent US20090312438A1, “Compositions and Methods for Attenuating the Formation of A2E in the Retinal Pigment Epithelium” (priority 2008, published 2009)
